According to patent EP4722201A1, “3-PHENYLISOXAZOLINE-5-CARBOXAMIDE COMPOUND, AND PREPARATION METHOD THEREFOR, HERBICIDAL COMPOSITION THEREOF AND USE THEREOF” (Jiangsu Flag Chemical Industry Co., Ltd, priority 2023, dated 2024):

Legend:
Assay in all cases: Indoor herbicide activity determination, Seed Treatment; pre-emergence (soil spray)
Assay type in all cases: in vivo
[1] = system: Aegilops tauschii; settings: read-out: Herbicidal activities (inhibition rate) Aegilops tauschii; for inhibition at 120 g/ha: 120 g a.i./ha; for inhibition at 60 g/ha: 60 g a.i./ha
Text: (§1) The testing method for herbicide activity of the compound of the present invention was as follows:
(§2) Seed Treatment; pre-emergence: quantitative seeds of gramineous weeds (Echinochloa crusgalli, Eleusine indica, Digitaria sanguinalis, Alopecurus japonicus, Beckmannia syzigachne, Leptochloa chinensis, Polypogon fugax, Alopecurus aequalis, Lolium multiflorum, Poa annua, Aegilops tauschii, Avena fatua, Alopecurus myosuroides, Alopecurus japonicus and Alopecurus aequalis), broad-leaved weeds (Eclipta prostrata, Amaranthus retroflexus, Rorippa indica, Malachium aquaticum, Veronica polita, Conyza canadensis, Sesbania cannabina, Sagittariatrifolia and Schoenoplectiella juncoides), and Cyperus iria were sown in plastic pots having a diameter of 7 cm and holes at the bottom and filled with nutrient soil (sandy soil, pH 6.1, organic matter 1%) respectively, the seeds were covered with an appropriate amount of soil after being sown, then the soil was wetted with water from the bottom, the seeds were cultured in a constant-temperature illuminated culture room for 24 h, and the soil was sprayed by using a 3WP-2000 traveling spray tower produced by the Nanjing Institute of Agricultural Mechanization of the Ministry of Agriculture, where a rotational speed of a main shaft was 96 mm/r, a spray height was 300 mm, an effective spraying range of a nozzle was 350 mm, a spray area was 0.35 m^2, and a flow rate at the nozzle was 390 mL/min.
(§3) Post-emergence: an appropriate quantity of seeds of gramineous weeds (Echinochloa crusgalli, Eleusine indica, Digitaria sanguinalis, Alopecurus japonicus, Beckmannia syzigachne, Leptochloa chinensis, Polypogon fugax, Alopecurus aequalis, Lolium multiflorum, Poa annua, Aegilops tauschii, Avena fatua, Alopecurus myosuroides, Alopecurus japonicus and Alopecurus aequalis), broad-leaved weeds (Eclipta prostrata, Amaranthus retroflexus, Rorippa indica, Malachium aquaticum, Veronica polita, Conyza canadensis, Sesbania cannabina, Sagittariatrifolia and Schoenoplectiella juncoides), and Cyperus iria were sown in plastic pots having a diameter of 7 cm and holes at the bottom and filled with nutrient soil (sandy soil, pH 6.1, organic matter 1%) respectively, the seeds were covered with an appropriate amount of soil after being sown, then the soil was wetted with water from the bottom, the seeds were cultured in a constant-temperature illuminated culture room until a 2-4 leaf stage, and stems and leaves underwent spray treatment. After the treatment, the test materials were placed in a laboratory and cultured in the constant-temperature illuminated culture room after the liquid was naturally dry in the shade, and results were determined 21 days later. Inhibition rate of fresh weight % = (1−(fresh weight of treated plants)/(fresh weight of control plants)) × 100% [formula]

[2] = system: Alopecurus japonicus
Text: as §1, §2, §3

[3] = system: Alopecurus myosuroides
Text: as §1, §2, §3

[4] = system: Cyperus iria; settings: read-out: Herbicidal activities (inhibition rate) Cyperus iria; for inhibition at 120 g/ha: 120 g a.i./ha; for inhibition at 60 g/ha: 60 g a.i./ha
Text: as §1, §2, §3

[5] = system: Eclipta prostrata; settings: read-out: Herbicidal activities (inhibition rate) Eclipta prostrata; for inhibition at 120 g/ha: 120 g a.i./ha; for inhibition at 60 g/ha: 60 g a.i./ha
Text: as §1, §2, §3

[6] = system: Eleusine indica
Text: as §1, §2, §3

[7] = system: Leptochloa chinensis
Text: as §1, §2, §3

[8] = system: Lolium multiflorum
Text: as §1, §2, §3

SMILES	inhibition at 120 g/ha [1]	Herbicidal activities, Alopecurus japonicus (inhibition rate class) ([2]; Dosage 240 g a.i./ha)	Herbicidal activities, Alopecurus myosuroides (inhibition rate class) ([3]; Dosage 240 g a.i./ha)	inhibition at 120 g/ha [4]	inhibition at 120 g/ha [5]	Herbicidal activities, Eleusine indica (inhibition rate class) ([6]; Dosage 240 g a.i./ha)	Herbicidal activities, Leptochloa chinensis (inhibition rate class) ([7]; Dosage 240 g a.i./ha)	Herbicidal activities, Lolium multiflorum (inhibition rate class) ([8]; Dosage 240 g a.i./ha)	inhibition at 60 g/ha [1]	Herbicidal activities, Alopecurus japonicus (inhibition rate class) ([2]; Dosage 120 g a.i./ha)	Herbicidal activities, Alopecurus myosuroides (inhibition rate class) ([3]; Dosage 120 g a.i./ha)	inhibition at 60 g/ha [4]	inhibition at 60 g/ha [5]	Herbicidal activities, Eleusine indica (inhibition rate class) ([6]; Dosage 120 g a.i./ha)	Herbicidal activities, Leptochloa chinensis (inhibition rate class) ([7]; Dosage 120 g a.i./ha)	Herbicidal activities, Lolium multiflorum (inhibition rate class) ([8]; Dosage 120 g a.i./ha)
C=CC1(C(=O)N[C@H]2C[C@@H](C(=O)OCC[S+](C)[O-])C2)CC(c2cc(F)cc(F)c2)=NO1 (stereo partly shown) [I-9]	80 to 100%	A (A indicates that the inhibition rate was greater than or equal to 80% to 100%)	A (A indicates that the inhibition rate was greater than or equal to 80% to 100%)	80 to 100%	60 to 80%	A (A indicates that the inhibition rate was greater than or equal to 80% to 100%)	A (A indicates that the inhibition rate was greater than or equal to 80% to 100%)	A (A indicates that the inhibition rate was greater than or equal to 80% to 100%)	–	–	–	–	–	–	–	–
C=CC1(C(=O)N[C@H]2C[C@@H](C(=O)OCCS(C)(=O)=O)C2)CC(c2cc(F)cc(F)c2)=NO1 (stereo partly shown) [I-10]	80 to 100%	A (A indicates that the inhibition rate was greater than or equal to 80% to 100%)	A (A indicates that the inhibition rate was greater than or equal to 80% to 100%)	80 to 100%	60 to 80%	A (A indicates that the inhibition rate was greater than or equal to 80% to 100%)	A (A indicates that the inhibition rate was greater than or equal to 80% to 100%)	A (A indicates that the inhibition rate was greater than or equal to 80% to 100%)	–	–	–	–	–	–	–	–
C=C[C@]1(C(=O)N[C@H]2C[C@@H](C(=O)NOC)C2)CC(c2cc(F)cc(F)c2)=NO1 [I-23]	–	–	–	–	–	–	–	–	80 to 100%	A (A indicates that the inhibition rate was greater than or equal to 80% to 100%)	A (A indicates that the inhibition rate was greater than or equal to 80% to 100%)	80 to 100%	60 to 80%	A (A indicates that the inhibition rate was greater than or equal to 80% to 100%)	A (A indicates that the inhibition rate was greater than or equal to 80% to 100%)	A (A indicates that the inhibition rate was greater than or equal to 80% to 100%)
C=C[C@]1(C(=O)N[C@H]2C[C@@H](C(=O)OCCCCC)C2)CC(c2cc(F)cc(Cl)c2)=NO1 [I-31]	–	–	–	–	–	–	–	–	60 to 80%	–	A (A indicates that the inhibition rate was greater than or equal to 80% to 100%)	60 to 80%	80 to 100%	A (A indicates that the inhibition rate was greater than or equal to 80% to 100%)	A (A indicates that the inhibition rate was greater than or equal to 80% to 100%)	–
C=C[C@]1(C(=O)N[C@H]2C[C@@H](C(=O)OCC=CC)C2)CC(c2cc(F)cc(Cl)c2)=NO1 [I-32]	–	–	–	–	–	–	–	–	60 to 80%	B (B indicates that the inhibition rate was greater than or equal to 60% to less than 80%)	A (A indicates that the inhibition rate was greater than or equal to 80% to 100%)	60 to 80%	80 to 100%	A (A indicates that the inhibition rate was greater than or equal to 80% to 100%)	A (A indicates that the inhibition rate was greater than or equal to 80% to 100%)	B (B indicates that the inhibition rate was greater than or equal to 60% to less than 80%)
C=C[C@]1(C(=O)N[C@H]2C[C@@H](C(=O)O[C@H](C)COC)C2)CC(c2cc(F)cc(Cl)c2)=NO1 [I-33]	–	–	–	–	–	–	–	–	60 to 80%	A (A indicates that the inhibition rate was greater than or equal to 80% to 100%)	A (A indicates that the inhibition rate was greater than or equal to 80% to 100%)	60 to 80%	80 to 100%	A (A indicates that the inhibition rate was greater than or equal to 80% to 100%)	A (A indicates that the inhibition rate was greater than or equal to 80% to 100%)	A (A indicates that the inhibition rate was greater than or equal to 80% to 100%)
C=C[C@]1(C(=O)N[C@H]2C[C@@H](C(=O)O[C@@H](C)COC)C2)CC(c2cc(F)cc(Cl)c2)=NO1 [I-34]	–	–	–	–	–	–	–	–	60 to 80%	B (B indicates that the inhibition rate was greater than or equal to 60% to less than 80%)	A (A indicates that the inhibition rate was greater than or equal to 80% to 100%)	60 to 80%	80 to 100%	A (A indicates that the inhibition rate was greater than or equal to 80% to 100%)	A (A indicates that the inhibition rate was greater than or equal to 80% to 100%)	B (B indicates that the inhibition rate was greater than or equal to 60% to less than 80%)
C=C[C@]1(C(=O)N[C@H]2C[C@@H](C(=O)OCC3CC3)C2)CC(c2cc(F)cc(Cl)c2)=NO1 [I-35]	–	–	–	–	–	–	–	–	60 to 80%	A (A indicates that the inhibition rate was greater than or equal to 80% to 100%)	A (A indicates that the inhibition rate was greater than or equal to 80% to 100%)	60 to 80%	60 to 80%	A (A indicates that the inhibition rate was greater than or equal to 80% to 100%)	A (A indicates that the inhibition rate was greater than or equal to 80% to 100%)	A (A indicates that the inhibition rate was greater than or equal to 80% to 100%)
C=C[C@]1(C(=O)N[C@H]2C[C@@H](C(=O)OCC(F)(F)C(F)F)C2)CC(c2cc(F)cc(OC(F)(F)F)c2)=NO1 [I-64]	–	–	–	–	–	–	–	–	60 to 80%	A (A indicates that the inhibition rate was greater than or equal to 80% to 100%)	A (A indicates that the inhibition rate was greater than or equal to 80% to 100%)	–	80 to 100%	B (B indicates that the inhibition rate was greater than or equal to 60% to less than 80%)	A (A indicates that the inhibition rate was greater than or equal to 80% to 100%)	A (A indicates that the inhibition rate was greater than or equal to 80% to 100%)
C=C[C@]1(C(=O)N[C@H]2C[C@@H](C(=O)OCCOCC)C2)CC(c2cc(F)cc(OC(F)(F)F)c2)=NO1 [I-65]	–	–	–	–	–	–	–	–	80 to 100%	A (A indicates that the inhibition rate was greater than or equal to 80% to 100%)	A (A indicates that the inhibition rate was greater than or equal to 80% to 100%)	–	60 to 80%	B (B indicates that the inhibition rate was greater than or equal to 60% to less than 80%)	A (A indicates that the inhibition rate was greater than or equal to 80% to 100%)	A (A indicates that the inhibition rate was greater than or equal to 80% to 100%)
